System: ovalbumin-sensitized guinea pigs
Assay: Guinea pig allergic rhinitis model: intranasal pressure after nasal ovalbumin challenge
Assay type: in vivo
Details: single administration, 60 minutes prior to ovalbumin 1% challenge, AUC 0-30 min
Experimental: Male Hartley guinea pigs (250-500 g) purchased from Charles River (St-Constant, Qc, Canada) were used. They were housed in a temperature and humidity controlled environment, in groups of four or five with food and water available ad libitum. Experimental procedures were approved by the Animal Care Committee at Merck Frosst Centre for Therapeutic Research, in accordance with the guidelines of the Canadian Council on Animal Care.
Sensitization: The animals were injected intrapeRitoneally with 0.5 ml of an ovalbumin solution (100 μg/ml) containing 100 mg/ml aluminum hydroxide in 0.9% saline. […]
Following the surgical preparation, gallamine (2 mg/kg, i.v.) was administered to suppress spontaneous breathing. […] The changes in the intranasal pressure were monitored through a pressure transducer (Validyne DP-45, membrane 6-26, Validyne Corp., Northridge, Calif.) connected to a side arm of the nasal cannula. Values were recorded every 5 seconds using a data acquisition system (Modular Instruments, Malvern, Pa.). […] The changes in intranasal pressure were recorded for 30 minutes following the nasal challenge, using the peak response.
The effects of test compounds were evaluated on the increased intranasal pressure following a nasal challenge with an aerosol of ovalbumin 1% for 3 minutes. […]

SMILES	effect on the increase in intranasal pressure produced by aerosol of ovalbumin (1 mg/kg i.p.)	effect on the increase in intranasal pressure produced by aerosol of ovalbumin (5 mg/kg i.p.)
C[S@+]([O-])c1cccc2c3c(n(Cc4ccc(Cl)cc4)c12)[C@@H](CC(=O)O)CCC3 [Compound I, 2-[(1R)-9-(4-chlorobenzyl)-8-((S)-methylsulfinyl)-2,3,4,9-tetrahydro-1H-carbazol-1-yl]acetic acid]	no significant effect	
COc1ccc(CN(CCN(C)C)c2ccccn2)cc1 [mepyramine]		no significant effect
